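Tested at 5 concentrations; 48 h exposure; 96-well plates; endpoints linearly interpolated, else capped at highest concentration. GI50: concentration for 50% inhibition of growth. The concentration for full growth arrest is given as TGI.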 Where a SMILES comes first, the peptide text is derived from it. [ ]: non-standard residue; d: D form. Phe(ol) = N[C@H](CO)Cc1ccccc1; Aib = CC(C)(N)C(=O)O
Tests used:
Test in all cases: growth of human tumour cells (NCI), 48 h
786-0 renal = tested on: 786-0 renal
A498 renal = tested on: A498 renal
A549 NSCLC = tested on: A549 NSCLC
ACHN renal = tested on: ACHN renal
BT-549 breast = tested on: BT-549 breast
CCRF-CEM leukemia = tested on: CCRF-CEM leukemia
COLO 205 colon = tested on: COLO 205 colon
EKVX NSCLC = tested on: EKVX NSCLC
HCC-2998 colon = tested on: HCC-2998 colon
HCT-116 colon = tested on: HCT-116 colon
HCT-15 colon = tested on: HCT-15 colon
HL-60(TB) leukemia = tested on: HL-60(TB) leukemia
HOP-62 NSCLC = tested on: HOP-62 NSCLC
HOP-92 NSCLC = tested on: HOP-92 NSCLC
HS 578T breast = tested on: HS 578T breast
HT29 colon = tested on: HT29 colon
IGROV1 ovarian = tested on: IGROV1 ovarian
K-562 leukemia = tested on: K-562 leukemia
KM12 colon = tested on: KM12 colon
LOX IMVI melanoma = tested on: LOX IMVI melanoma
M14 melanoma = tested on: M14 melanoma
MALME-3M melanoma = tested on: MALME-3M melanoma
MCF7 breast = tested on: MCF7 breast
MDA-MB-231 breast = tested on: MDA-MB-231 breast
MDA-MB-435 = tested on: MDA-MB-435
MOLT-4 leukemia = tested on: MOLT-4 leukemia
NCI-H226 lung = tested on: NCI-H226 lung
NCI-H23 lung = tested on: NCI-H23 lung
NCI-H460 lung = tested on: NCI-H460 lung
NCI-H522 lung = tested on: NCI-H522 lung
NCI/ADR-RES ovarian = tested on: NCI/ADR-RES ovarian
OVCAR-3 ovarian = tested on: OVCAR-3 ovarian
OVCAR-4 ovarian = tested on: OVCAR-4 ovarian
OVCAR-5 ovarian = tested on: OVCAR-5 ovarian
OVCAR-8 ovarian = tested on: OVCAR-8 ovarian
PC-3 prostate = tested on: PC-3 prostate
RPMI-8226 leukemia = tested on: RPMI-8226 leukemia
RXF 393 renal = tested on: RXF 393 renal
SF-268 CNS = tested on: SF-268 CNS
SF-295 CNS = tested on: SF-295 CNS
SF-539 CNS = tested on: SF-539 CNS
SK-MEL-2 melanoma = tested on: SK-MEL-2 melanoma
SK-MEL-28 melanoma = tested on: SK-MEL-28 melanoma
SK-MEL-5 melanoma = tested on: SK-MEL-5 melanoma
SK-OV-3 ovarian = tested on: SK-OV-3 ovarian
SN12C renal = tested on: SN12C renal
SNB-19 CNS = tested on: SNB-19 CNS
SNB-75 CNS = tested on: SNB-75 CNS
SR leukemia = tested on: SR leukemia
SW-620 colon = tested on: SW-620 colon
T-47D breast = tested on: T-47D breast
TK-10 renal = tested on: TK-10 renal
U251 CNS = tested on: U251 CNS
UACC-257 melanoma = tested on: UACC-257 melanoma
UACC-62 melanoma = tested on: UACC-62 melanoma
UO-31 renal = tested on: UO-31 renal

CC(=O)NC(C)(C)C(=O)N1CCC[C@H]1C(=O)NC(C)(C)C(=O)N[C@@H](C)C(=O)NC(C)(C)C(=O)NC(C)(C)C(=O)N[C@@H](CCC(N)=O)C(=O)NC(C)(C)C(=O)N[C@H](C(=O)NC(C)(C)C(=O)NCC(=O)N[C@@H](CC(C)C)C(=O)NC(C)(C)C(=O)N1CCC[C@H]1C(=O)N[C@H](C(=O)NC(C)(C)C(=O)NC(C)(C)C(=O)N[C@@H](CCC(N)=O)C(=O)N[C@@H](CCC(N)=O)C(=O)N[C@H](CO)Cc1ccccc1)C(C)C)C(C)C (Ac-[Aib]P[Aib]A[Aib][Aib]Q[Aib]V[Aib]GL[Aib]PV[Aib][Aib]QQ[Phe(ol)])
GI50 (786-0 renal): > 4.25 µM | TGI (786-0 renal): > 4.25 µM | GI50 (A498 renal): 1.64 µM | TGI (A498 renal): > 4.25 µM | GI50 (A549 NSCLC): 1.69 µM | TGI (A549 NSCLC): > 4.25 µM | GI50 (ACHN renal): > 4.25 µM | TGI (ACHN renal): > 4.25 µM | GI50 (BT-549 breast): 0.78 µM | TGI (BT-549 breast): 2.66 µM | GI50 (CCRF-CEM leukemia): 2.11 µM | TGI (CCRF-CEM leukemia): > 4.25 µM | GI50 (COLO 205 colon): 0.831 µM | TGI (COLO 205 colon): 2.31 µM | GI50 (EKVX NSCLC): 2.51 µM | TGI (EKVX NSCLC): > 4.25 µM | GI50 (HCC-2998 colon): 1.96 µM | TGI (HCC-2998 colon): > 4.25 µM | GI50 (HCT-116 colon): 1.58 µM | TGI (HCT-116 colon): > 4.25 µM | GI50 (HCT-15 colon): > 4.25 µM | TGI (HCT-15 colon): > 4.25 µM | GI50 (HL-60(TB) leukemia): 1.74 µM | TGI (HL-60(TB) leukemia): > 4.25 µM | GI50 (HOP-62 NSCLC): 3.07 µM | TGI (HOP-62 NSCLC): > 4.25 µM | GI50 (HOP-92 NSCLC): 1.1 µM | TGI (HOP-92 NSCLC): 3.58 µM | GI50 (HS 578T breast): 1.49 µM | TGI (HS 578T breast): > 4.25 µM | GI50 (HT29 colon): 1.26 µM | TGI (HT29 colon): > 4.25 µM | GI50 (IGROV1 ovarian): 3.06 µM | TGI (IGROV1 ovarian): > 4.25 µM | GI50 (K-562 leukemia): 1.88 µM | TGI (K-562 leukemia): > 4.25 µM | GI50 (KM12 colon): 1.88 µM | TGI (KM12 colon): > 4.25 µM | GI50 (LOX IMVI melanoma): 1.57 µM | TGI (LOX IMVI melanoma): > 4.25 µM | GI50 (M14 melanoma): 3.85 µM | TGI (M14 melanoma): > 4.25 µM | GI50 (MALME-3M melanoma): 1.04 µM | TGI (MALME-3M melanoma): 3.43 µM | GI50 (MCF7 breast): 0.206 µM | TGI (MCF7 breast): > 4.25 µM | GI50 (MDA-MB-231 breast): 1.29 µM | TGI (MDA-MB-231 breast): > 4.25 µM | GI50 (MDA-MB-435): 1.5 µM | TGI (MDA-MB-435): > 4.25 µM | GI50 (MOLT-4 leukemia): 2.8 µM | TGI (MOLT-4 leukemia): > 4.25 µM | GI50 (NCI-H226 lung): 1.32 µM | TGI (NCI-H226 lung): > 4.25 µM | GI50 (NCI-H23 lung): 0.833 µM | TGI (NCI-H23 lung): > 4.25 µM | GI50 (NCI-H460 lung): 1.27 µM | TGI (NCI-H460 lung): > 4.25 µM | GI50 (NCI-H522 lung): 0.948 µM | TGI (NCI-H522 lung): > 4.25 µM | GI50 (NCI/ADR-RES ovarian): > 4.25 µM | TGI (NCI/ADR-RES ovarian): > 4.25 µM | GI50 (OVCAR-3 ovarian): 1.29 µM | TGI (OVCAR-3 ovarian): > 4.25 µM | GI50 (OVCAR-4 ovarian): 1.05 µM | TGI (OVCAR-4 ovarian): > 4.25 µM | GI50 (OVCAR-5 ovarian): 1.73 µM | TGI (OVCAR-5 ovarian): > 4.25 µM | GI50 (OVCAR-8 ovarian): 2.43 µM | TGI (OVCAR-8 ovarian): > 4.25 µM | GI50 (PC-3 prostate): 1.34 µM | TGI (PC-3 prostate): > 4.25 µM | GI50 (RPMI-8226 leukemia): 0.296 µM | TGI (RPMI-8226 leukemia): 2.19 µM | GI50 (RXF 393 renal): 0.777 µM | TGI (RXF 393 renal): 2.48 µM | GI50 (SF-268 CNS): 1.73 µM | TGI (SF-268 CNS): > 4.25 µM | GI50 (SF-295 CNS): 1.32 µM | TGI (SF-295 CNS): > 4.25 µM | GI50 (SF-539 CNS): 1.34 µM | TGI (SF-539 CNS): > 4.25 µM | GI50 (SK-MEL-2 melanoma): 1.33 µM | TGI (SK-MEL-2 melanoma): 4.02 µM | GI50 (SK-MEL-28 melanoma): 1.36 µM | TGI (SK-MEL-28 melanoma): > 4.25 µM | GI50 (SK-MEL-5 melanoma): 0.899 µM | TGI (SK-MEL-5 melanoma): 1.96 µM | GI50 (SK-OV-3 ovarian): 1.28 µM | TGI (SK-OV-3 ovarian): > 4.25 µM | GI50 (SN12C renal): 0.931 µM | TGI (SN12C renal): > 4.25 µM | GI50 (SNB-19 CNS): 1.16 µM | TGI (SNB-19 CNS): > 4.25 µM | GI50 (SNB-75 CNS): 0.788 µM | TGI (SNB-75 CNS): > 4.25 µM | GI50 (SR leukemia): 2.2 µM | TGI (SR leukemia): > 4.25 µM | GI50 (SW-620 colon): 2.55 µM | TGI (SW-620 colon): > 4.25 µM | GI50 (T-47D breast): 1.12 µM | TGI (T-47D breast): 3.88 µM | GI50 (TK-10 renal): 3.92 µM | TGI (TK-10 renal): > 4.25 µM | GI50 (U251 CNS): 1.07 µM | TGI (U251 CNS): > 4.25 µM | GI50 (UACC-257 melanoma): 1.02 µM | TGI (UACC-257 melanoma): 3.43 µM | GI50 (UACC-62 melanoma): 1.8 µM | TGI (UACC-62 melanoma): > 4.25 µM | GI50 (UO-31 renal): > 4.25 µM | TGI (UO-31 renal): > 4.25 µM
